Data: patent publication US8518947B2, “(Heterocycle/tetrahydropyridine)-(piperazinyl)-1-alcanone and (heterocycle/dihydropyrrolidine)-(piperazinyl)-1-alcanone derivatives, and use thereof as p75 inhibitors” (Sanofi, priority 2009, dated 2013)
Where a name gives a salt, the structure may show the parent alone.

| Structure (SMILES) | melting point |
| --- | --- |
| Cc1cc2cc(C3=CCN(C(=O)CN4CC5CCC(C4)N5c4ncc(F)cn4)CC3)ccc2s1 | 177 to 179 °C |
| Cc1cc2cc(C3=CCN(C(=O)CN4CC5CCC(C4)N5c4ccc(C#N)cn4)CC3)ccc2s1 | 171 to 172 °C |
| C[C@@H]1CN(c2ccc(C(=O)O)cn2)C[C@H](C)N1CC(=O)N1CC=C(c2cccc3ccoc23)CC1 [Compound 57, 6-{(3S,5R)-4-[2-(4-benzofuran-7-yl-3,6-dihydro-2H-pyridin-1-yl)-2-oxoethyl]-3,5-dimethylpiperazin-1-yl}nicotinic acid] | 272 to 274 °C |
| O=C(CN1CC2CCC(C1)N2c1ncc(F)cn1)N1CC=C(c2c[nH]c3cc(F)ccc23)CC1 (as salt: oxalate) | 95 to 96 °C |
| COC(=O)c1ccc(N2C3CCC2CN(CC(=O)N2CC=C(c4cccc5ccsc45)C2)C3)nc1 | 172 to 173 °C |
| COC(=O)c1ccc(N2C3CCC2CN(CC(=O)N2CC=C(c4ccc5sccc5c4)CC2)C3)nc1 | 150 to 151 °C |
| O=C(O)c1ccc(N2C3CCC2CN(CC(=O)N2CC=C(c4cccc5ccsc45)CC2)C3)nc1 [85] | 191 to 192 °C |
| C[C@@H]1CN(c2ncc(C(F)(F)F)cc2Cl)C[C@H](C)N1CC(=O)N1CC=C(c2cccc3ccoc23)CC1 [Compound 92, 1-(4-benzofuran-7-yl-3,6-dihydro-2H-pyridin-1-yl)-2-[(2S,6R)-4-(3-chloro-5-trifluoromethylpyridin-2-yl)-2,6-dimethylpiperazin-1-yl]ethanone] | 130 to 131 °C |
| O=C(CN1CCN(c2ccc(C(F)(F)F)cn2)C(=O)C1)N1CC=C(c2c[nH]c3ccccc23)CC1 [Compound 30, 4-{2-[4-(1H-indol-3-yl)-3,6-dihydro-2H-pyridin-1-yl]-2-oxoethyl}-1-(5-trifluoromethylpyridin-2-yl)piperazin-2-one] | 230 to 233 °C |
| CCCc1cc2cc(C3=CCN(C(=O)CN4[C@H](C)CN(c5ccc(C(F)(F)F)cn5)C[C@@H]4C)CC3)ccc2s1 [Compound 68, 2-[(2S,6R)-2,6-dimethyl-4-(5-trifluoromethylpyridin-2-yl)piperazin-1-yl]-1-[4-(2-propylbenzo[b]thiophen-5-yl)-3,6-dihydro-2H-pyridin-1-yl]ethanone] | 157 to 159 °C |
| Cc1cc2cc(C3=CCN(C(=O)CN4CC5CCC(C4)N5c4ccc(C(=O)O)cn4)CC3)ccc2s1 | 160 to 161 °C |
| O=C(O)c1ccc(N2C3CCC2CN(CC(=O)N2CC=C(c4cccc5ccsc45)CC2)C3)nc1 [71] | 121 to 122 °C |
| C[C@@H]1CN(c2cncnc2)C[C@H](C)N1CC(=O)N1CC=C(c2ccc3sccc3c2)CC1 [Compound 41, 1-(4-benzo[b]thiophen-5-yl-3,6-dihydro-2H-pyridin-1-yl)-2-((2S,6R)-2,6-dimethyl-4-pyrimidin-5-ylpiperazin-1-yl)ethanone] | 218 to 220 °C |
| O=C(O)c1ccc(N2C3CCC2CN(CC(=O)N2CC=C(c4cccc5ccsc45)C2)C3)nc1 | 189 to 190 °C |
| Cc1cc2cc(C3=CCN(C(=O)CN4[C@H](C)CN(c5ncc(F)cn5)C[C@@H]4C)CC3)ccc2s1 [Compound 38, 2-[(2S,6R)-4-(5-fluoropyrimidin-2-yl)-2,6-dimethylpiperazin-1-yl]-1-[4-(2-methylbenzo[b]thiophen-5-yl)-3,6-dihydro-2H-pyridin-1-yl]ethanone] | 205 to 206 °C |
| COC(=O)c1ccc(N2C[C@@H](C)N(CC(=O)N3CC=C(c4ccc5sc(C)cc5c4)CC3)[C@@H](C)C2)nc1 [Compound 61, Methyl 6-((3S,5R)-3,5-dimethyl-4-{2-[4-(2-methylbenzo[b]thiophen-5-yl)-3,6-dihydro-2H-pyridin-1-yl]-2-oxoethyl}piperazin-1-yl)nicotinate] | 148 to 150 °C |
| O=C(CN1CCN(c2ccc(C(F)(F)F)cn2)CC1)N1CC=C(c2cccc3ccoc23)CC1 [Compound 33, 1-(4-benzofuran-7-yl-3,6-dihydro-2H-pyridin-1-yl)-2-[4-(5-trifluoromethylpyridin-2-yl)piperazin-1-yl]ethanone] | 155 to 156 °C |
| O=C(CN1CC2CCC(C1)N2c1ncc(F)cn1)N1CC=C(c2csc3ccccc23)CC1 | 172 to 174 °C |
| O=C(CN1CC2CCC(C1)N2c1ncc(F)cn1)N1CC=C(c2coc3ccccc23)CC1 | 207 to 210 °C |
| COC(=O)c1cc2cccc(C3=CCN(C(=O)CN4[C@H](C)CN(c5ccc(C(F)(F)F)cn5)C[C@@H]4C)CC3)c2s1 (as salt: HCl) [Compound 66, Methyl 7-(1-{2-[(2S,6R)-2,6-dimethyl-4-(5-trifluoromethylpyridin-2-yl)piperazin-1-yl]acetyl}-1,2,3,6-tetrahydropyridin-4-yl)benzo[b]thiophene-2-carboxylate] | 138 to 141 °C |
| COC(=O)c1ccc(N2C3CCC2CN(CC(=O)N2CC=C(c4cccc5ccoc45)CC2)C3)nc1 | 158 to 159 °C |
| C[C@@H]1CN(c2cncnc2)C[C@H](C)N1CC(=O)N1CC=C(c2cccc3ccoc23)CC1 [Compound 35, 1-(4-benzofuran-7-yl-3,6-dihydro-2H-pyridin-1-yl)-2-((2S,6R)-2,6-dimethyl-4-pyrimidin-5-ylpiperazin-1-yl)ethanone] | 142 to 143 °C |
| O=C(CN1CCN(c2ccc(C(F)(F)F)cn2)C(=O)C1)N1CC=C(c2cccc3ccoc23)C1 [Compound 83, 4-[2-(3-benzofuran-7-yl-2,5-dihydropyrrol-1-yl)-2-oxoethyl]-1-(5-trifluoromethylpyridin-2-yl)piperazin-2-one] | 184 to 186 °C |
| O=C(CN1CCN(c2ccc(C(F)(F)F)cn2)C(=O)C1)N1CC=C(c2ccc3c(c2)OCCO3)CC1 [Compound 49, 4-{2-[4-(2,3-dihydrobenzo[1,4]dioxin-6-yl)-3,6-dihydro-2H-pyridin-1-yl]-2-oxoethyl}-1-(5-trifluoromethylpyridin-2-yl)piperazin-2-one] | 161 to 162 °C |
| Cc1cc2cc(C3=CCN(C(=O)CN4[C@H](C)CN(c5ccc(C(F)(F)F)nc5)C[C@@H]4C)CC3)ccc2s1 [Compound 39, 2-[(2S,6R)-2,6-dimethyl-4-(6-trifluoromethylpyridin-3-yl)piperazin-1-yl]-1-[4-(2-methylbenzo[b]thiophen-5-yl)-3,6-dihydro-2H-pyridin-1-yl]ethanone] | 217 to 218 °C |

Now from value to compound:

| melting point | Structure (SMILES) |
| --- | --- |
| 80 to 81 °C | O=C(CN1CCN(c2cccc(Br)n2)CC1)N1CC=C(c2cccc3ccsc23)CC1 [Compound 113, 1-(4-benzo[b]thiophen-7-yl-3,6-dihydro-2H-pyridin-1-yl)-2-[4-(6-bromopyridin-2-yl)piperazin-1-yl]ethanone] |
| 121 to 123 °C | Cc1cc2cc(C3=CCN(C(=O)CN4CCN(c5cccc(C(F)(F)F)n5)CC4)CC3)ccc2s1 [Compound 116, 1-[4-(2-methylbenzo[b]thiophen-5-yl)-3,6-dihydro-2H-pyridin-1-yl]-2-[4-(6-trifluoromethylpyridin-2-yl)piperazin-1-yl]ethanone] |
| 189 to 190 °C | Cc1cc2cc(C3=CCN(C(=O)CN4CCN(c5ccc6ccccc6n5)CC4)CC3)ccc2s1 [Compound 114, 1-[4-(2-methylbenzo[b]thiophen-5-yl)-3,6-dihydro-2H-pyridin-1-yl]-2-(4-quinolin-2-ylpiperazin-1-yl)ethanone] |
| 213 to 215 °C | O=C(CN1CCN(c2ccc3ccccc3n2)CC1)N1CC=C(c2c[nH]c3ccccc23)CC1 [Compound 98, 1-[4-(1H-indol-3-yl)-3,6-dihydro-2H-pyridin-1-yl]-2-(4-quinolin-2-ylpiperazin-1-yl)ethanone] |
| 165 to 170 °C | C[C@@H]1CN(c2ccc(-c3nnn(C)n3)cn2)C[C@H](C)N1CC(=O)N1CC=C(c2cccc3ccoc23)CC1 (as salt: oxalate) [Compound 120, 1-(4-benzofuran-7-yl-3,6-dihydro-2H-pyridin-1-yl)-2-{(2S,6R)-2,6-dimethyl-4-[5-(2-methyl-2H-tetrazol-5-yl)pyridin-2-yl]piperazin-1-yl}ethanone] |
| 157 to 158 °C | C[C@@H]1CN(c2ccc(Cl)cn2)C[C@H](C)N1CC(=O)N1CC=C(c2cccc3ccsc23)CC1 [Compound 101, 1-(4-benzo[b]thiophen-7-yl-3,6-dihydro-2H-pyridin-1-yl)-2-[(2S,6R)-4-(5-chloropyridin-2-yl)-2,6-dimethylpiperazin-1-yl]ethanone] |
| 92 to 93 °C | O=C(CN1CCN(c2cccc(Cl)n2)CC1)N1CC=C(c2cccc3ccsc23)CC1 [Compound 107, 1-(4-benzo[b]thiophen-7-yl-3,6-dihydro-2H-pyridin-1-yl)-2-[4-(6-chloropyridin-2-yl)piperazin-1-yl]ethanone] |
| 140 to 145 °C | C[C@@H]1CN(c2ccc(-c3nccs3)cn2)C[C@H](C)N1CC(=O)N1CC=C(c2cccc3ccoc23)CC1 (as salt: oxalate) [Compound 119, 1-(4-benzofuran-7-yl-3,6-dihydro-2H-pyridin-1-yl)-2-[(2S,6R)-2,6-dimethyl-4-(5-thiazol-2-ylpyridin-2-yl)piperazin-1-yl]ethanone] |
| 145 to 148 °C | O=C(CN1CCN(c2ccc(C(F)(F)F)cn2)C(=O)C1)N1CC=C(c2nccc3sccc23)CC1 [Compound 118, 4-[2-oxo-2-(4-thieno[3,2-c]pyridin-4-yl-3,6-dihydro-2H-pyridin-1-yl)ethyl]-1-(5-trifluoromethylpyridin-2-yl)piperazin-2-one] |
| 90 to 91 °C | O=C(CN1CCN(c2ccnc3cc(Cl)ccc23)CC1)N1CC=C(c2cccc3ccsc23)CC1 [Compound 106, 1-(4-benzo[b]thiophen-7-yl-3,6-dihydro-2H-pyridin-1-yl)-2-[4-(7-chloroquinolin-4-yl)piperazin-1-yl]ethanone] |
| 202 to 204 °C | O=C(CN1CCN(c2cccc(Cl)n2)CC1)N1CC=C(c2c[nH]c3ccccc23)CC1 [Compound 108, 2-[4-(6-chloropyridin-2-yl)piperazin-1-yl]-1-[4-(1H-indol-3-yl)-3,6-dihydro-2H-pyridin-1-yl]ethanone] |
| 235 to 237 °C | C[C@@H]1CN(c2ncc(F)cn2)C[C@H](C)N1CC(=O)N1CC=C(c2c[nH]c3ccccc23)CC1 [Compound 100, 2-[(2S,6R)-4-(5-fluoropyrimidin-2-yl)-2,6-dimethylpiperazin-1-yl]-1-[4-(1H-indol-3-yl)-3,6-dihydro-2H-pyridin-1-yl]ethanone] |
